Values after ≈ are worked out from the molar mass of the structure shown.
Key:
[1] = tested on: Streptococcus pneumoniae; experiment: Antibacterial activity against Streptococcus pneumoniae ATCC 49619; assay type: functional
[2] = tested on: Escherichia coli; experiment: Antibacterial activity against Escherichia coli KL16; assay type: functional
[3] = tested on: Staphylococcus aureus; experiment: Antibacterial activity against Staphylococcus aureus ATCC 13709; assay type: functional
[4] = Inhibition of bacterial DNA gyrase
[5] = Inhibition of bacterial DNA topoisomerase 4
[6] = tested on: Staphylococcus aureus; experiment: Antibacterial activity against quinolone susceptible methicillin resistant Staphylococcus aureus OC2878; assay type: functional
[7] = tested on: Staphylococcus aureus; experiment: Antibacterial activity against ciprofloxacin resistant methicillin resistant Staphylococcus aureus OC4159; assay type: functional
[8] = tested on: Staphylococcus aureus; experiment: Antibacterial activity against ciprofloxacin resistant methicillin resistant Staphylococcus aureus OC5273; assay type: functional
[9] = tested on: Staphylococcus aureus; experiment: Antibacterial activity against ciprofloxacin resistant methicillin resistant Staphylococcus aureus OC4222; assay type: functional
[10] = tested on: Staphylococcus aureus; experiment: Antibacterial activity against ciprofloxacin resistant methicillin resistant Staphylococcus aureus OC3946; assay type: functional

Compound | MIC [1] [µg/mL] | MIC [2] [µg/mL] | MIC [3] [µg/mL] | IC50 [4] [µg/mL] | IC50 [5] [µg/mL] | MIC [6] [µg/mL] | MIC [7] [µg/mL] | MIC [8] [µg/mL] | MIC [9] [µg/mL] | MIC [10] [µg/mL]
COc1ccc2nccc(-n3cc4c(n3)CCC(NC(=O)c3cc5c(cc3C)SCC(=O)N5)C4)c2n1 (stereo not drawn) | > 16 | > 16 | 0.25 (≈ 0.499 µM) | – | – | – | – | – | – | –
CCOC(=O)c1cc2c(cc1C(=O)NC1CCc3nn(-c4ccnc5ccc(OC)cc45)cc3C1)NC(=O)CS2 (stereo not drawn) | > 16 | > 16 | 2 (≈ 3.59 µM) | – | – | – | – | – | – | –
COc1ccc2nccc(-n3cc4c(n3)CCC(NC(=O)c3cc5c(cc3C(=O)O)SCC(=O)N5)C4)c2c1 (stereo not drawn) | > 16 | > 16 | 1 (≈ 1.89 µM) | – | – | – | – | – | – | –
COc1ccc2nccc(-n3cc4c(n3)CCC(NC(=O)/C=C/c3ccccc3)C4)c2n1 (stereo not drawn) | 2 (≈ 4.7 µM) | – | 0.25 (≈ 0.588 µM) | 8 (≈ 18.8 µM) | – | – | – | – | – | –
COc1ccc2nccc(-n3cc4c(n3)CCC(NC(=O)/C=C/c3ccccc3)C4)c2c1 (stereo not drawn) | 4 (≈ 9.42 µM) | – | 1 (≈ 2.36 µM) | 16 (≈ 37.7 µM) | 0.5 (≈ 1.18 µM) | – | – | – | – | –
COc1ccc2nccc(-n3cc4c(n3)CCC(NC/C=C/c3ccccc3)C4)c2c1 (stereo not drawn) | 1 (≈ 2.44 µM) | – | 0.5 (≈ 1.22 µM) | 4 (≈ 9.74 µM) | – | 0.5 (≈ 1.22 µM) | 0.5 (≈ 1.22 µM) | 1 (≈ 2.44 µM) | 0.25 (≈ 0.609 µM) | 0.5 (≈ 1.22 µM)
COc1ccc2nccc(-n3cc4c(n3)CCC(NCCCc3ccccc3)C4)c2n1 (stereo not drawn) | < 0.125 | – | 0.25 (≈ 0.605 µM) | 0.8 (≈ 1.93 µM) | – | – | – | – | – | –
COc1ccc2nccc(-n3cc4c(n3)CCC(NC(=O)c3ccc(C)c([N+](=O)[O-])c3)C4)c2c1 (stereo not drawn) | 4 (≈ 8.74 µM) | – | 0.25 (≈ 0.546 µM) | > 16 | – | – | – | – | – | –
COc1ccc2nccc(-n3cc4c(n3)CCC(NC(=O)c3cc(F)c(Cl)cc3Cl)C4)c2c1 (stereo not drawn) | 8 (≈ 16.5 µM) | – | 0.25 (≈ 0.515 µM) | – | – | – | – | – | – | –
COc1ccc2nccc(-n3cc4c(n3)CCC(NC(=O)c3cc5c(cc3C)SCC(=O)N5)C4)c2c1 (stereo not drawn) | 16 (≈ 32 µM) | 8 (≈ 16 µM) | 0.5 (≈ 1 µM) | – | – | – | – | – | – | –
CCOC(=O)c1cc2c(cc1C(=O)NC1CCc3nn(-c4ccnc5ccc(OC)nc45)cc3C1)NC(=O)CS2 (stereo not drawn) | > 16 | > 16 | 0.5 (≈ 0.895 µM) | – | – | – | – | – | – | –
COc1ccc2nccc(-n3cc4c(n3)CCC(NCc3ccc5c(c3)OCO5)C4)c2n1 (stereo not drawn) | 2 (≈ 4.66 µM) | 32 (≈ 74.5 µM) | 0.5 (≈ 1.16 µM) | 0.25 (≈ 0.582 µM) | 0.25 (≈ 0.582 µM) | – | – | – | – | –
COc1ccc2nccc(-n3cc4c(n3)CCC(NCc3ccc5c(n3)NC(=O)CO5)C4)c2n1 (stereo not drawn) | 2 (≈ 4.37 µM) | 2 (≈ 4.37 µM) | 0.25 (≈ 0.546 µM) | < 0.125 | 0.016 (≈ 0.035 µM) | – | – | – | – | –
COc1ccc2nccc(-n3cc4c(n3)CCC(NC(=O)c3cc5c(cc3C(=O)O)SCC(=O)N5)C4)c2n1 (stereo not drawn) | 16 (≈ 30.2 µM) | > 16 | 0.5 (≈ 0.942 µM) | – | – | – | – | – | – | –
COc1ccc2nccc(-n3cc4c(n3)CCC(NC/C=C/c3ccccc3)C4)c2n1 (stereo not drawn) | < 0.125 | – | 0.06 (≈ 0.146 µM) | 0.12 (≈ 0.292 µM) | < 0.015 | 0.125 (≈ 0.304 µM) | 0.062 (≈ 0.151 µM) | 0.125 (≈ 0.304 µM) | 0.062 (≈ 0.151 µM) | 0.062 (≈ 0.151 µM)
COc1ccc2nccc(-n3cc4c(n3)CCC(NC(=O)c3ccc(C)c([N+](=O)[O-])c3)C4)c2n1 (stereo not drawn) | 8 (≈ 17.4 µM) | – | 0.25 (≈ 0.545 µM) | – | – | – | – | – | – | –
COc1ccc2nccc(-n3cc4c(n3)CCC(NC(=O)c3c(F)cc5c(c3F)NC(=O)CS5)C4)c2n1 (stereo not drawn) | 4 (≈ 7.65 µM) | > 128 | 0.125 (≈ 0.239 µM) | 1 (≈ 1.91 µM) | – | – | – | – | – | –
COc1ccc2nccc(-n3cc4c(n3)CCC(NC(=O)c3cc5c(cc3Br)SCC(=O)N5)C4)c2c1 (stereo not drawn) | 2 (≈ 3.54 µM) | 2 (≈ 3.54 µM) | 0.125 (≈ 0.221 µM) | 0.5 (≈ 0.886 µM) | 0.125 (≈ 0.221 µM) | – | – | – | – | –
COc1ccc2nccc(-n3cc4c(n3)CCC(NC(=O)c3cc5c(cc3C(F)(F)F)SCC(=O)N5)C4)c2n1 (stereo not drawn) | 8 (≈ 14.4 µM) | 4 (≈ 7.21 µM) | 0.125 (≈ 0.225 µM) | 0.25 (≈ 0.451 µM) | – | – | – | – | – | –
COc1ccc2nccc(-n3cc4c(n3)CCC(NC(=O)c3ccc5c(c3)NC(=O)CO5)C4)c2c1 (stereo not drawn) | 4 (≈ 8.52 µM) | 2 (≈ 4.26 µM) | 0.125 (≈ 0.266 µM) | 0.25 (≈ 0.532 µM) | 0.5 (≈ 1.06 µM) | – | – | – | – | –
O=C(O)c1cn(C2CC2)c2cc(N3CCNCC3)c(F)cc2c1=O [CIPROFLOXACIN] | – | – | 0.25 (≈ 0.754 µM) | – | – | – | – | – | – | –
CCn1cc(C(=O)O)c(=O)c2cc(F)c(N3CCNCC3)cc21 [NORFLOXACIN] | – | – | 1 (≈ 3.13 µM) | – | – | 1 (≈ 3.13 µM) | > 128 | > 128 | > 128 | 128 (≈ 401 µM)
C[C@@H]1CN(c2c(F)c(N)c3c(=O)c(C(=O)O)cn(C4CC4)c3c2F)C[C@H](C)N1 [SPARFLOXACIN] | – | – | 0.062 (≈ 0.158 µM) | – | – | 0.062 (≈ 0.158 µM) | 16 (≈ 40.8 µM) | 16 (≈ 40.8 µM) | 8 (≈ 20.4 µM) | 4 (≈ 10.2 µM)
